Earlier results in patent publication US11344529B2, “Compositions and methods for the treatment of metabolic conditions” (Reven IP HoldCo LLC, priority 2017, dated 2022).

How the values were obtained:
[1] = more than 500 postmenopausal women

Structure (SMILES): CC(C)=CCC/C(C)=C/CC/C(C)=C/CC/C(C)=C/CC1=C(C)C(=O)c2ccccc2C1=O [Vitamin K2]
- association of intake with coronary calcification [1]: associated with the trend toward decreasing coronary calcification
- total cholesterol, lipid peroxidation, aortic ester cholesterol deposition, plasma factor X activity (compared to the control group): reduce total cholesterol levels, lipid peroxidation, ester cholesterol deposition in the aorta and factor X activity in plasma
- atherosclerotic plaque progression in the aorta and pulmonary arteries (rabbits, 1-10 mg/kg daily for 10 weeks): inhibited the atherosclerotic plaque progression
